Source: publication PMC9785311, “Effect of Structural Differences in Naringenin, Prenylated Naringenin, and Their Derivatives on the Anti-Influenza Virus Activity and Cellular Uptake of Their Flavanones” (Pharmaceuticals, 2022)
Where two headings read alike, the source gives them in different places.

Key:
[1] = test system: influenza virus A/PR/8/34; assay: microbe, parasite or virus in culture; assay type: cell-based, Type A influenza virus H1N1 (PR/8/34); conditions: for SI (Selectivity index = CC50/IC50): CC50 50% cytotoxicity concentration in MDCK cells (MTT), IC50 against A/PR/8/34
[2] = test system: MDCK cells; assay: Efflux of prenylated naringenin after intracellular saturation; assay type: cell-based, canine; conditions: for Release of intracellular compound from the cell: after 180 min exposure, compound-free DMEM containing 1% FBS, 0-240 min; for Fluorescence intensity change after 120 min culture in compound-free medium compared to 0 min: cells saturated by 180 min exposure, then DMEM containing 1% FBS for 120 min
Method: Based on our results, we examined the kinetics of intracellular prenylated naringenin in Dulbecco’s Modified Eagle Medium (DMEM) containing 1% fetal bovine serum (FBS). […] The intracellular kinetics changed greatly depending on the position of the prenyl group. After 120 min of culturing in the medium, the fluorescence intensity of 8-PN and 6-PN increased approximately 1.6-fold and 9.4-fold, respectively, compared to that at 0 min (Figure 6).
Figure 5 Efflux of prenylated naringenin after intracellular saturation. The amount of the compound in the cells was saturated by exposure for 180 min, and the cells were cultured in Dulbecco’s Modified Eagle Medium (DMEM) for 0, 120, and 240 min. After removing the medium, cells were fixed with 4% paraformaldehyde and stained with DAPI (blue). These images show 8-PN (A) and 6-PN (B) fluorescence. Scale bars = 50 μm.
Figure 6 Efflux and fluorescence intensity of intracellular prenylated naringenins. Fluorescence intensity of 8-PN and 6-PN from Figure 5. The standard deviation bars are indicated on each bar graph. *** p < 0.001.

[3] = test system: MDCK cells; assay: Cellular uptake by fluorescence microscopy; conditions: 30 μM compound, phenol red-free medium, 60-360 min, about 20 cells per time point
[4] = test system: MDCK cells; assay: Intracellular distribution by fluorescence microscopy of fixed cells; assay type: cell-based, canine; conditions: 30 μM, 180 min exposure, fixed with 4% paraformaldehyde, DAPI
Method: Cells cultured on glass plates were exposed to a concentration of 30 μM for 180 min. The exposed cells were washed with PBS and the compounds were removed from the medium. The cells were then fixed with 4% paraformaldehyde and observed under a fluorescence microscope. […] The amount of naringenin taken up by the cells may be small. Moreover, fluorescence was detected for prenylated naringenin.
Figure 4 Analysis of prenylated naringenin and naringenin fluorescence distribution by imaging. After removing the medium, cells were treated with 30 μM compound for 180 min and fixed with 4% paraformaldehyde. Fixed cells were stained with DAPI (blue). These images show fluorescence of 8-prenylnaringenin (8-PN; A), 6-prenylnaringenin (6-PN; B), and naringenin (C). Scale bars = 50 μm.
Cells were cultured on glass plates and incubated in a medium supplemented with the compound for 180 min. They were then washed and fixed with 4% paraformaldehyde for 30 min. After washing with PBS, DAPI staining was performed. Intracellular distribution was photographed and observed using an inverted fluorescence phase-contrast microscope (BZ-X800, Keyence, Osaka, Japan).

[5] = test system: influenza virus A/PR/8/34; assay: Time-of-addition assay; assay type: cell-based, Type A influenza virus H1N1 (PR/8/34); conditions: 30 μM, MOI 0.01
From the text: We performed a time-of-addition assay to verify the effect of the prenyl group position on viral growth inhibition. Figure 7A,B show virus viability when exposed to each prenylated naringenin for each time duration. […] In previous studies, inhibitory effects differed depending on the flavonoid backbone. The anti-influenza virus effect depends on the position of the prenyl group, which is a novel observation of the present study.
Figure 7 Effect of prenylated naringenin on virus viability. (A) 8-PN and 6-PN (30 μM). (B) Schedule of the experiment. Cells were infected with influenza virus A/PR/8/34 at a multiplicity of infection of 0.01 in 24-well plates. After infection at each time point, the cells were harvested and viruses were assayed using a focus-forming reduction assay. […] Data are representative of three independent experiments. Standard deviation bars indicate each bar graph (*** p < 0.001, ** p < 0.01).
We conducted a time-of-addition assay as previously described. DMEM containing prenylated naringenin (30 μM) was added at −1–0 h (adsorption), 0–8 h (replication), 0–4 h, 0–2 h, 2–4 h, 4–8 h, 4–6 h, and 6–8 h. Furuta et al. estimated the intracellular cycle of infected cells before extracellular budding to be 8 h, and growth stages were assumed to occur at 2 h intervals.

[6] = A/PR/8/34 strain in MDCK cells, mean ± SD of three independent experiments, ND = not detected

For `CC(C)CCc1c(O)cc(O)c2c1OC(c1ccc(O)cc1)CC2=O` (stereo not drawn) [1d], the “SI (Selectivity index = CC50/IC50)” value [1] was 3.0 and the IC50 ([1]; PR/8, MDCK) was 61 ± 14 µM.

For `CC1(C)OC1Cc1c(O)cc(O)c2c1OC(c1ccc(O)cc1)CC2=O` (stereo not drawn) [1a], the melting point was 191.5 to 193 °C, the “SI (Selectivity index = CC50/IC50)” value [1] was 2.7 and the IC50 ([1]; PR/8, MDCK) was 59 ± 9 µM.

With `CC(=O)Oc1ccc(C2CC(=O)c3c(O)cc(OC(C)=O)cc3O2)cc1` (stereo not drawn) [Naringenin-4′,7′-diacetate] the IC50 ([1]; A/PR/8/34 strain in MDCK cells, mean ± SD of three independent experiments, ND = not detected, listed as naringenin-4′,7-diacetate) was “markedly lost its anti-influenza activity” and the IC50 ([1]; A/PR/8/34 strain in MDCK cells, mean ± SD of three independent experiments, ND = not detected, listed as naringenin-4′,7′-diacetate) was “lost its activity”.

For `CC(C)CCc1c(O)cc2c(c1O)C(=O)CC(c1ccc(O)cc1)O2` (stereo not drawn) [2b], the IC50 [1, 6] was “weaker activities than 6-PN”, the “SI (Selectivity index = CC50/IC50)” value [1] was 1.3 and the IC50 ([1]; PR/8, MDCK) was 58 ± 15.2 µM.

For `C=C(C)C(Cc1c(O)cc(O)c2c1OC(c1ccc(O)cc1)CC2=O)OC(C)=O` (stereo not drawn) [1b], the melting point was 189 to 191.5 °C and the IC50 [1, 6] was “lost and not active”.

With `C=CCc1c(O)cc2c(c1O)C(=O)C[C@@H](c1ccc(O)cc1)O2` (racemic) [2a, 6-allylnaringenin] the IC50 [1, 6] was “weaker activities than 6-PN”, the “SI (Selectivity index = CC50/IC50)” value [1] was 0.8 and the IC50 ([1]; PR/8, MDCK) was 103 ± 3.8 µM.

With `O=C1CC(c2ccc(O)cc2)Oc2cc(O)c(CC=C3CCCCC3)c(O)c21` (stereo not drawn) [2c] the melting point was 204.4 to 205.2 °C and the IC50 [1, 6] was “not detected”.

For `CC(=O)Oc1ccc(C2CC(=O)c3c(O)cc(OC(C)=O)c(CCC(C)C)c3O2)cc1` (stereo not drawn) [1c], the “SI (Selectivity index = CC50/IC50)” value [1] was 6.3 and the IC50 ([1]; PR/8, MDCK) was 42 ± 2.1 µM.

In the case of (±)-Naringenin [reference compound], the IC50 ([1]; A/PR/8/34 strain in MDCK cells, mean ± SD of three independent experiments, ND = not detected, read-out: IC50) is reported as 290 ± 16.2 µM and the “SI (Selectivity index = CC50/IC50)” value [1] is reported as 4.9.

In the case of `CC(C)=CCc1c(O)cc2c(c1O)C(=O)C[C@@H](c1ccc(O)cc1)O2` [6-PN, 6-prenylnaringenin], the “Release of intracellular compound from the cell” value [2] is reported as “released relatively quickly”, the “Fluorescence intensity change after 120 min culture in compound-free medium compared to 0 min” value [2] is reported as roughly 9.4 fold and the “Fluorescence intensity (intracellular uptake)” value [3] is reported as “high fluorescence intensity”. The “Intracellular distribution of fluorescence” value [4] was “localize to the cytoplasmic periphery”, the “SI (Selectivity index = CC50/IC50)” value [1] was 5.5 and the IC50 ([1]; PR/8, MDCK) was 38 ± 4.7 µM. The “Inhibition of virus growth, 2 h exposure (4–6 h after infection)” value [5] was “high inhibition tendency” and the “Inhibition of virus growth, late stage (6–8 h)” value [5] was “block the late stage of viral growth”.

Compound `CCC(CC)O[C@@H]1C=C(C(=O)O)C[C@H](N)[C@H]1NC(C)=O` [oseltamivir acid, reference compound] has an IC50 ([1]; PR/8, MDCK) of 0.002 µM.

In the case of `CC(C)=CCc1c(O)cc(O)c2c1O[C@H](c1ccc(O)cc1)CC2=O` [8-PN, 8-prenylnaringenin], the “Release of intracellular compound from the cell” value [2] is reported as “released from the cell slowly”, the “Fluorescence intensity change after 120 min culture in compound-free medium compared to 0 min” value [2] is reported as “approximately 1.6 fold” and the “Fluorescence intensity (intracellular uptake)” value [3] is reported as “high fluorescence intensity”. The “Intracellular distribution of fluorescence” value [4] was “distributed mostly in the cytoplasm and nucleus”, the “SI (Selectivity index = CC50/IC50)” value [1] was 4.9 and the IC50 ([1]; PR/8, MDCK) was 24 ± 0.6 µM. The “Inhibition of virus growth, exposure during virus adsorption period (−1–0 h)” value [5] was “high inhibitory effect” and the “Inhibition of virus growth, late stage (6–8 h)” value [5] was “block the late stage of viral growth”.

For `CC(=O)OC(Cc1c(O)cc(O)c2c1OC(c1ccc(O)cc1)CC2=O)C(C)C` (stereo not drawn) [1e], the melting point was 155 to 156 °C and the IC50 [1, 6] was “lost and not active”.

With `O=C1CC(c2ccc(O)cc2)Oc2cc(O)c(CCC3CCCCC3)c(O)c21` (stereo not drawn) [2d] the melting point was 213.3 to 215.3 °C and the IC50 [1, 6] was “not detected”.
